In patent US5364615A (priority 1992, dated 1994):
Several values for one entry are separate records, joined by “and”; a condition that tells them apart may be missing. Equal entries are not always repeated. Entries after “also recorded” stand apart in the source; their conditions may differ. Where two headings read alike, the source gives them in different places.

Tests used:
[1] = literature, cited from earlier work
[2] = tested on: Pneumocystis carinii; type: in vivo, human
[3] = Aerosol particle size of pentamidine; type: physicochemical; conditions: for particle size (MMAD): Respirgard II
Description: A compressed oxygen (5-7 L/min at 345 kPa, 50 psi) powered nebulizer produces the aerosol and one-way valves provide for entrainment of room air in patients whose minute ventilation is high, act as a baffle to decrease particle size, and direct expired air to a filter which removes the remaining particles of drug thereby preventing environmental contamination.
Particles were sized with a 7 stage Mercer cascade impactor (Intox Products, Albuquerque, N. Mex.). The gas supply was 6 L/min, the sample stream was not dried, and the impactor flow rates were 0.5 L/min. […] Results from the average of three determinations at each location were expressed as mass median aerodynamic diameter ±geometric standard deviation (MMAD±GSD). Raabe, J Aerosol Sci (1971) Z:289-303.

[4] = Side effects (Example 6); type: in vivo, human
[5] = tested on: Pneumocystis carinii; conditions: human, in vivo
Description: The initial diagnosis of P. carinii pneumonia was based on finding the organism in induced sputum or bronchoalveolar lavage specimens.
Treatment was as described in Example 3.
Chest radiographs and arterial blood gas tensions were obtained as clinically indicated.

[6] = in vivo
[7] = Adverse reactions and toxicity during PCP therapy (Example 3); conditions: for FEV1/FVC ratio: mean±1 SD
[8] = tested on: Pneumocystis carinii; experiment: Randomized clinical trial of PCP prophylaxis (Example 8); type: in vivo, human
[9] = 13 patients treated successfully
[10] = distal to the nebulizer (point A)
[11] = intravenous 4 mg/Kg, 18-24 h, per patient, 4 mg/kg
[12] = group b, 150 mg every two weeks
[13] = group c, 300 mg every four weeks

N=C(N)c1ccc(OCCCCCOc2ccc(C(=N)N)cc2)cc1 [pentamidine, p,p'-(pentamethylenedioxy)dibenzamidine]
Toxicity Req Change of Therapy, % [1]: 55% | rate of severe reactions ([1]; parenteral pentamidine, TMP-SMX): 50% | relapse ([2]; 13 patients followed 2-4 months): No patient presented evidence of relapse | arterial oxygenation and vital capacity [2, 9]: Eleven of the 13 patients showed improvements of their arterial oxygenation and vital capacity | dyspnea, respiratory rate and fever [2, 9]: marked reduction in dyspnea, respiratory rate and fever | radiographic improvement [2, 9]: 4 had radiographic improvement beginning by the second week of therapy and Five patients showed worsened radiographic infiltrates at one week with subsequent improvement and remaining 4 patients had worsened radiographic infiltrates or no improvement for the first two weeks of therapy, then improvement | overall efficacy rate ([2]; 95% confidence limits, 58% to 98%): 87% | Pre therapy DLCO ([2]; baseline): 64.9 percent predicted | Pre therapy PaO2 ([2]; baseline): 67.9 torr | Pre therapy Vital Capacity ([2]; baseline): 50.8 percent predicted | subjective and objective improvement ([2]; human, in vivo): Thirteen of 15 patients had subjective and objective improvement | time of clinical improvement ([2]; human, in vivo): Ten patients had clinical improvement in the first week of therapy, and 3 patients during the second week of therapy | Successful Treatment W/ Change, % ([2]; n = 15): 93% | Successful Treatment w/o Change, % ([2]; n = 15): 86% | treatment failure / death ([2]; one patient with concomitant tuberculosis therapy, changed to TMP-SMX on day 7): died of progressive respiratory failure | Post therapy DLCO ([2]; post therapy): 61.7 percent predicted | Post therapy PaO2 ([2]; post therapy): 80.1 torr | Post therapy Vital Capacity ([2]; post therapy): 61.8 percent predicted | particle size (MMAD ± GSD) ([3]; Example 3, nebulizer of Example 2, 600 mg in 6 mL): 1.42±1.88 μm | mass of particles larger than 4 μm ([3]; at the mouthpiece (point B)): less than 5% | particle size (MMAD) ([3]; at the mouthpiece (point B)): 1.42 μm | mass of particles larger than 4 μm [3, 10]: greater than 20% | particle size (MMAD) [3, 10]: 2.38 μm | pentamidine distal to the exhalation filter ([3]; point C): No pentamidine was found distal to the exhalation filter | BAL sediment concentration, aerosol vs intravenous (18-24 h): 10-100 fold | mean BAL supernatant (aerosol) vs BAL sediment (intravenous), factor (18-24 h): more than 2 | BAL sediment concentration, Mean ± SEM (aerosol 300 mg, 18-24 h): 705 ± 242 ng/mL | BAL supernatant concentration, Mean ± SEM (aerosol 300 mg, 18-24 h): 23.2 ± 7.75 ng/mL | systemic absorption (after aerosol administration): Little or no systemic absorption was detectable | BAL sediment concentration, Mean ± SEM (intravenous 4 mg/Kg, 18-24 h): 9.34 ± 1.74 ng/mL | BAL supernatant concentration, Mean ± SEM (intravenous 4 mg/Kg, 18-24 h): 2.64 ± 0.73 ng/mL | BAL sediment concentration [11]: 12.8 ng/mL and 6.89 ng/mL and 8.35 ng/mL | BAL supernatant concentration [11]: 1.48 ng/mL and 2.44 ng/mL and 4.0 ng/mL | response to standard therapy (patients infected with P. carinii, either intravenous pentamidine or TMP-SMX): All patients infected with P. carinii responded to standard therapy | withdrawals due to toxicity ([4]; all groups): no withdrawals due to toxicity | Cough ([4]; group a, 30 mg every two weeks): 25% | Metallic Taste ([4]; group a, 30 mg every two weeks): 11% | Wheezing ([4]; group a, 30 mg every two weeks): 10% | Cough [4, 12]: 34% | Metallic Taste [4, 12]: 16% | Wheezing [4, 12]: 14% | Cough [4, 13]: 34% | Metallic Taste [4, 13]: 20% | Wheezing [4, 13]: 14% | clinical response (hypoxia, fever, dyspnea, radiographs) [5]: none of the patients were hypoxic or febrile, all had improvement in dyspnea, and all had current or subsequent chest radiographs indicating roentrographic improvement of infiltrates | completion of therapy [5]: All patients successfully completed therapy | hypotension or dysglycemia [6]: no episodes of hypotension or dysglycemia | inhalation-associated cough [6]: Eight of thirteen patients (four of whom also experienced bronchospasm) had mild inhalation-associated cough | reversible bronchospasm [6]: occurred in five patients | FEV1/FVC ratio ([7]; end of therapy): 79.9±15.8% | FEV1/FVC ratio, single treatment ([7]; first 4 patients): no different before and after a single treatment | bronchospasm / airway obstruction ([7]; in vivo): Neither clinical nor spirometric evidence of airway obstruction occurred; also recorded: Clinical bronchospasm was not seen | FEV1/FVC ratio ([7]; initial testing): 76.1±12.2% | Toxicity Req Change of Therapy, % ([7]; n = 15): 0% | Completed without Endpoint ([8]; 30 mg every two weeks): 26 | Died, Due to PCP ([8]; 30 mg every two weeks): 5 | Died, Not due to PCP ([8]; 30 mg every two weeks): 51 | Extrapulmonary Pneumocystis ([8]; 30 mg every two weeks): 0 | PCP, Confirmed ([8]; 30 mg every two weeks): 32 | PCP, Unconfirmed ([8]; 30 mg every two weeks): 9 | Completed without Endpoint ([8]; 150 mg every two weeks): 38 | Died, Due to PCP ([8]; 150 mg every two weeks): 6 | Died, Not due to PCP ([8]; 150 mg every two weeks): 47 | Extrapulmonary Pneumocystis ([8]; 150 mg every two weeks): 1 | PCP, Confirmed ([8]; 150 mg every two weeks): 28 | PCP, Unconfirmed ([8]; 150 mg every two weeks): 4
